Experimental data as given in patent US5736384A (priority 1994, dated 1998).
Entries after “also recorded” stand apart in the source; their conditions may differ. Where two headings read alike, the source gives them in different places.

Tests used:
XP2 [1] = assay type: biochemical, Bacillus sp. 2113
Procedure: (§1) Various inhibitors and the like were added to each of the enzyme solutions to a concentration of 1 mM and retained at 4° C. overnight. Then, the same substance was also added to a reaction mixture to a concentration of 1 mM, and the enzyme activities of XP1 and XP2 were determined.

XP1 [2] = experiment: biochemical; assay type: biochemical, Bacillus sp. 2113; details: inhibitor 1 mM, 4° C. overnight, also 1 mM in reaction mixture, None = 100; for activity at 1000 µM: read-out: Relative Activity(%) XP1
Procedure: as §1

XP1 [3] = experiment: Effects of metal salts on enzyme activity of XP1; assay type: biochemical, Bacillus sp. 2113; details: metal salt 1 mM, 4° C. overnight, also 1 mM in reaction mixture; None = 100
Procedure: (§2) Various metal salts were added to each of the enzyme solutions to a concentration of 1 mM and retained at 4° C. overnight. Then, a metal salt of the same kind was also added to a reaction mixture to a concentration of 1 mM, and the enzyme activities of XP1 and XP2 were determined.

XP2 [4] = experiment: Effects of metal salts on enzyme activity of XP2; assay type: biochemical, Bacillus sp. 2113; details: for Relative Activity(%) XP2: metal salt 1 mM, 4° C. overnight, also 1 mM in reaction mixture, None = 100; for inhibition of XP2 by metal ion (in words): 1 mM
Procedure: as §2

XP1 [5] = biological target: T1, XP1 (Paenibacillus sp. DG-22, UniProt A4GG22); experiment: biochemical; assay type: biochemical, Bacillus sp. 2113; details: for activity at 1000 µM: read-out: Relative Activity(%) XP1
T1 sequence (A4GG22 29-211): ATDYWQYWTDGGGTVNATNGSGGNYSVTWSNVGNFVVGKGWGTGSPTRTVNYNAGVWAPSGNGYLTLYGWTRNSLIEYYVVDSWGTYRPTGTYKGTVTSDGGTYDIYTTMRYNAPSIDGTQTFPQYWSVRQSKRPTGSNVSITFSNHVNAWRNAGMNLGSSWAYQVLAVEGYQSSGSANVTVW
Procedure: as §1

XP1 [6] = biological target: T1, XP1; experiment: Effects of metal salts on enzyme activity of XP1; assay type: biochemical, Bacillus sp. 2113; details: 1 mM
T1 sequence (A4GG22 29-211): as above
Procedure: as §2

[7] = Thermostability (residual activity after 30 min at a certain temperature); assay type: physicochemical; details: 50 mM Tris-HCl buffer (pH 7.2)
Procedure: In addition, after each enzyme was left in 50 mM Tris-HCl buffer (pH 7.2) for 30 minutes at a certain temperature, the enzyme activity was determined.

[8] = Determination of xylanase activity (DNS reducing sugar method); assay type: biochemical; details: purified enzyme
Procedure: (§3) Fifty microliters of a sample solution is added to 200 μl of 1% birch xylan (Sigma) solution (pH 6.5, in 1/10 McIlvaine buffer), and reacted at 70° C. for 5 minutes. Five hundreds microliters of DNS reagent is added thereto and boiled for 5 minutes. Then, the reaction mixture is immediately ice-cooled and 4 ml distilled water is added thereto. Thereafter, absorbance at 500 nm is measured. Calibration curves are prepared by using a xylose solution of known concentration.
(§4) As to the unit of xylanase activity, one unit (U) was defined as the amount of enzyme which releases […] of reducing sugar per minute under the above conditions.
Fifty microliters of the crude enzyme solution was added to 200 μl of 1% birch xylan (Sigma) solution (in 1/10 McIlvaine buffer, pH 6. 5), and reacted at 70° C. for 5 minutes.
After addition of DNS reagent (500 μl) and subsequent boiling for 5 minutes, the reaction mixture was immediately ice-cooled and 4 ml of distilled water was added thereto. Then, absorbance at 500 nm was measured. Calibration curves were prepared by using a xylose solution of known concentration.
As to the unit of xylanase activity, one unit (U) was defined as the amount of enzyme which releases 1 μmol of reducing sugar per minute under the above conditions. […]

[9] = pH stability (enzyme activity after two nights in buffer); assay type: physicochemical; details: retained in 50 mM buffer for two nights
Procedure: (§5) For each of the enzymes, the optimum pH and pH stability were determined by using glycine-HCl buffer (pH 3 or below), acetate buffer (pH 4-5), sodium phosphate buffer (pH 6-7), Tris-HCl buffer (pH 8-9) and glycine-NaOH buffer (pH 9.1-10.1). The enzyme activity of each xylanase was measured at each of the pH values.
In addition, each of the enzymes was retained in a certain 50 mM buffer for two nights and then the enzyme activity was determined.

[10] = Enzyme activity at different temperatures (optimum / appropriate temperature); assay type: biochemical
Procedure: as §3, §4
The enzyme activity of each enzyme was determined at different temperatures.

Substrate specificity = assay type: biochemical
[11] = Optimum pH for reaction (enzyme activity measured at each pH); assay type: biochemical
Procedure: as §5, §3, §4

[12] = Action: thin-layer chromatography of reaction products from birch xylan; assay type: biochemical; details: 1% birch xylan, pH 7.0, 60° C., 10 U enzyme, TLC
Procedure: To 5 ml of 1% birch xylan (Sigma) solution (pH 7.0, in 40 mM sodium phosphate buffer), 10 U of each of XP1 and XP2 was added and reacted at 60° C. After a certain reaction period, the reaction was terminated by boiling and 10 μl of the reaction mixture was subjected to thin-layer chromatography using HPTLC Kieselgel 60 F254 (Merk) as a thin layer and a mixture of n-butanol, acetic acid and water (10:5:1) as a developer. The coloring was carried out by spraying a diphenylamine-aniline reagent and heating at 120° C. for 10 minutes.
The number of minutes shown in this FIG. represents the reaction time of the enzyme.

[13] = inhibitor 1 mM, 4° C. overnight, also 1 mM in reaction mixture, None = 100

Compound: O[C@H](CS)[C@H](O)CS (racemic) [Dithiothreitol]
- Relative Activity(%) XP2 (XP2 [1]; [13]): 82%
- activity at 1000 µM (XP1 [2]): 85%

Compound: [Cl][Al]([Cl])[Cl] [AlCl3]
- Relative Activity(%) XP1 (XP1 [3]): 110%
- Relative Activity(%) XP2 (XP2 [4]): 100%

Compound: [Ba+2].[Cl-].[Cl-] [BaCl2]
- Relative Activity(%) XP1 (XP1 [3]): 137%
- Relative Activity(%) XP2 (XP2 [4]): 108%

Compound: [Ca+2].[Cl-].[Cl-] [CaCl2]
- Relative Activity(%) XP1 (XP1 [3]): 106%
- Relative Activity(%) XP2 (XP2 [4]): 98%

Compound: [Cl-].[Cl-].[Co+2] [CoCl2]
- Relative Activity(%) XP1 (XP1 [3]): 107%
- inhibition of XP2 by metal ion (in words) (XP2 [4]): weakly inhibited
- Relative Activity(%) XP2 (XP2 [4]): 70%

Compound: [Cl][Cu][Cl] [CuCl2]
- Relative Activity(%) XP1 (XP1 [3]): 87%
- inhibition of XP2 by metal ion (in words) (XP2 [4]): weakly inhibited
- Relative Activity(%) XP2 (XP2 [4]): 68%

Compound: O=C(O)CN(CCN(CC(=O)O)CC(=O)O)CC(=O)O [EDTA]
- Relative Activity(%) XP2 (XP2 [1]): 65%
- inhibition of XP2 by inhibitor (in words) (XP2 [1]): weakly inhibited
- inhibition of XP1 by inhibitor (in words) (XP1 [5]): weakly inhibited
- activity at 1000 µM (XP1 [5]): 59%

Compound: O=S(=O)([O-])[O-].[Fe+2] [FeSO4]
- Relative Activity(%) XP1 (XP1 [3]): 165%
- Relative Activity(%) XP2 (XP2 [4]): 99%

Compound: [Cl][Hg][Cl] [HgCl2]
- Relative Activity(%) XP1 (XP1 [3]): 24%
- inhibition of XP1 by metal ion (in words) (XP1 [6]): strongly inhibited
- inhibition of XP2 by metal ion (in words) (XP2 [4]): strongly inhibited
- Relative Activity(%) XP2 (XP2 [4]): 0%

Compound: O=C(O)CI [Iodoacetic acid]
- Relative Activity(%) XP2 (XP2 [1]): 76%
- inhibition of XP2 by inhibitor (in words) (XP2 [1]): weakly inhibited
- inhibition of XP1 by inhibitor (in words) (XP1 [5]): weakly inhibited
- activity at 1000 µM (XP1 [5]): 75%

Compound: [Cl-].[Li+] [LiCl]
- Relative Activity(%) XP1 (XP1 [3]): 128%
- Relative Activity(%) XP2 (XP2 [4]): 99%

Compound: [Cl-].[Cl-].[Mg+2] [MgCl2]
- Relative Activity(%) XP1 (XP1 [3]): 129%
- Relative Activity(%) XP2 (XP2 [4]): 103%

Compound: [Cl][Mn][Cl] [MnCl2]
- Relative Activity(%) XP1 (XP1 [3]): 99%
- inhibition of XP2 by metal ion (in words) (XP2 [4]): weakly inhibited
- Relative Activity(%) XP2 (XP2 [4]): 74%

Compound: [N-]=[N+]=[N-].[Na+] [NaN3]
- Relative Activity(%) XP2 (XP2 [1]; [13]): 109%
- Relative Activity(%) XP1 (XP1 [2]): 96%

Compound: [Cl][Ni][Cl] [NiCl2]
- Relative Activity(%) XP1 (XP1 [3]): 129%
- Relative Activity(%) XP2 (XP2 [4]): 93%

Compound: [Cl-].[Rb+] [RbCl]
- Relative Activity(%) XP1 (XP1 [3]): 121%
- Relative Activity(%) XP2 (XP2 [4]): 98%

Compound: CCCCCCCCCCCCOS(=O)(=O)O [SDS]
- inhibition of XP2 by inhibitor (in words) (XP2 [1]; 1 mM): strongly inhibited
- Relative Activity(%) XP2 (XP2 [1]; [13]): 0%
- activity at 1000 µM (XP1 [2]): 0%
- inhibition of XP1 by inhibitor (in words) (XP1 [5]; 1 mM): strongly inhibited

Compound: XP1: thermostable xylanase from Bacillus sp. 2113 culture, active fraction eluted earlier; amino acid sequence SEQ ID NO: 1
- residual enzyme activity after 30 min treatment at 50° C. ([7]; 50° C.): ≥ 90%
- residual enzyme activity after 30 min treatment at 60° C. ([7]; 60° C.): ≥ 50%
- specific activity [8]: 1420 U/mg
- pH at which the xylanase is stable [9]: 3.0-9.0
- optimum temperature for reaction [10]: 70 °C
- substrate specificity (Substrate specificity): act on prepared xylans such as birch xylan and oat spelt xylan, as well as xylan-containing materials such as hardwood kraft pulp and oat spelt bran; also recorded: acting on prepared xylans including birch xylan and oat spelt xylan, as well as xylan-containing materials including hardwood kraft pulp and oat spelt bran
- optimum pH for reaction [11]: 5-8
- products formed upon acting on xylan [12]: xyloligosaccharides
